This is an account of results in US10428022B2, “Iminosugars useful for the treatment of viral diseases” (Emergent Virology, LLC, priority 2014, dated 2019).

Series [1] is described as follows: CellTiter-Glo Luminescent Cell Viability Assay (cytotoxicity). As to conditions: African green monkey; Vero cells, 3-5 days in culture. It is filed as cell-based. The procedure: Cytotoxicity: To determine the cytotoxicity of the compounds in Vero cells, the CellTiter-Glo Luminescent Cell Viability Assay (Promega) was used. The compounds were tested at 6-8 concentrations in three replicates. Control conditions include vehicle-only treated cells to set 100% surviving cells, DMSO-killed cells as a cell death-inducing control, and no cells for 0% surviving cells. Cytotoxicity is measured after 3-5 days in culture by the change/decrease in relative light units (RLUs) in each sample which reflects the amount of ATP present (an indicator of metabolically active cells).
The 50% cellular cytotoxicity (CC50) value is calculated based on the RLUs of the compound-treated samples using vehicle-only control as 100% survival and no cells as 0% survival.

Series [2] deals with dengue virus (DENV serotype 2, strain New Guinea C). Description: microbe, parasite or virus in culture. It is filed as cell-based. Conditions: DENV2, 120 h, virus yield reduction in Vero cells, 5 days.
In series [3] the test system is Venezuelan Equine Encephalitis Virus (VEEV TC-83 stain). The series is described as follows: microbe, parasite or virus in culture. It is filed as cell-based. Conditions: Vero, 72 h, read-out: IC50 Venezuelan Equine Encephalitis TC-83 (VEEV).
Series [4] in a line: Aqueous solubility in gastric and intestinal fluids (Cerep). Type of series: physicochemical. Here is the method: (§1) Assays for drug likeness (solubility, microsomal stability, plasma protein binding, A-B efflux, cytochrome CYP450 3A4, hERG binding, and Ames) were carried out by Cerep (Washington USA, and France) using standard protocols for in vitro testing. Assay protocols are provided online at http://www.cerep.fecerep/users/pages/catalog/profiles/catalog.asp and Cerep standard procedures and concentrations were used for all assays.

Series [5] in a line: In vivo pharmacokinetics and oral bioavailability in rat. The arrangement: species or system male Sprague-Dawley rats. Conditions: male, Sprague-Dawley, plasma. Here is the method:
In vivo pharmacokinetic parameters and oral bioavailability for UV-0060 was determined by Eurofins (Cerep Panlabs, Taiwan). A pharmacokinetic study following oral and intravenous administrations was performed using male Sprague-Dawley rats. Test article was formulated in 2% DMSO/0.9% NaCl and administered orally (PO) at 10 mg/kg and intravenously (IV) at 5 mg/kg to groups of 3 rats. The dosing volume was 10 mL/kg for PO and 5 mL/kg for IV. Rats weighing 220±20 g were used. Blood samples were harvested at 3, 10, 30, 60, 120, 240, 360, 720 and 1440 minutes after intravenous injection and at 10, 30, 60, 120, 240, 360, 720 and 1440 minutes after oral administration. Blood was collected in tubes coated with lithium heparin, mixed gently, then kept on ice and centrifuged at 2,500×g for 15 minutes at 4° C., within 1 hour of collection. The plasma was harvested and kept frozen at −80° C. until further processing. A plasma calibration curve from 3-10000 ng/mL was generated using oxybutynin as internal standard. Aliquots of drug-free plasma were spiked with the test compound at the specified concentration levels. Plasma samples were processed using acetonitrile precipitation and analyzed by HPLC/MS/MS. The spiked plasma samples were processed together with the unknown plasma samples using the same procedure. HPLC/MS/MS analysis was carried out with electrospray ionization in positive ion mode with multiple reaction monitoring. HPLC column was Agilent Poroshell 120 EC-C18 column 2.7 μm (3.0×50 mm, 23° C.) with an acetonitrile/water/formic acid mobile phase gradient. Standards data were fitted linearly with a 1/x2 weighting.

Series [6] in a line: Human microsomal stability (Cerep). Conditions: human microsomes; read-out: Human microsomal stability: t½. Type of series: in vitro ADME. Here is the method:
as §1

Series [7] can be described thus: Human plasma protein binding (Cerep). Type of series: in vitro ADME. Here is the method:
as §1

Series [8] is described as follows: A-B Efflux (Caco2) (Cerep). Type of series: in vitro ADME. Conditions: human, Caco-2. The procedure:
as §1
For orientation: Passage across Caco-2 layers is used to estimate intestinal permeability.

Series [9] concerns the target T1, CYP3A4 (Homo sapiens, UniProt P08684).
T1 construct: Cerep
Description: CYP450 3A4 inhibition (Cerep). It is filed as in vitro ADME. The procedure: as §1

Series [10] is described as follows: Ames (Cerep). As to conditions: with or without S9 activation. Here is the method:
as §1

Series [11] can be described thus: Aqueous solubility in acidified water. It is filed as physicochemical. Conditions: aqueous buffer; in acidified water pH~4.
The nature of series [12]: In vivo pharmacokinetics in mouse. As to conditions: plasma.
A short description of series [13]: In vivo pharmacokinetics in guinea pig. Conditions: plasma.
Where [14] appears, read: Mouse, single dose, tested IV, oral routes.
Setting [15] is: Guinea pig, single dose, tested IV, SQ, IM routes.

Where only a bound is given, the exact number is not on record here.

As a reminder, the CC50 is the concentration at which the toxic effect on the cells reaches its halfway point. Low values mean greater toxicity to the cells, high ones lower toxicity to the cells. Broadly, the IC50 is the concentration needed to halve the response being measured. Broadly, the solubility is the dissolved amount per volume that the medium holds. As usually defined, the Tmax is the time at which the peak concentration occurs. For orientation: fraction unbound means the share of the substance not bound to proteins or other matrix. Broadly, the Papp A→B is how fast a substance crosses the layer from the apical side. A higher Papp A→B goes with fast passage. Broadly, the inhibition is the drop in the measured response relative to a control, in per cent. Higher therefore signals strong suppression. In general, Cmax refers to the highest concentration seen after dosing.

T1 sequence (P08684 whole entry): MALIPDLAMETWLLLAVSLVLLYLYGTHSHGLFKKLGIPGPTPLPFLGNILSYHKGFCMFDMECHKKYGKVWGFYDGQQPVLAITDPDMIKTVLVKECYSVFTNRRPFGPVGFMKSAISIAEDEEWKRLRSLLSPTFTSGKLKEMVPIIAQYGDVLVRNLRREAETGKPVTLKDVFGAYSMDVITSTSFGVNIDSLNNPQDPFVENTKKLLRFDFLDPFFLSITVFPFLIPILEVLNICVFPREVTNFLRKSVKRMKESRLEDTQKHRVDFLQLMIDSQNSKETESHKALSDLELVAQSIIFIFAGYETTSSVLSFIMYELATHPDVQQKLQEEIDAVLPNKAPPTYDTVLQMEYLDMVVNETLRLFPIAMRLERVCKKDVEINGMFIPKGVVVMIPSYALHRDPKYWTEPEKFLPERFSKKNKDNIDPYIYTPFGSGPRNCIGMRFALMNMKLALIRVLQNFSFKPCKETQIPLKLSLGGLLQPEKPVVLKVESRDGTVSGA

Consider `O=[N+]([O-])c1cc(-n2nccn2)ccc1NCCCCCCN1C[C@H](O)[C@@H](O)[C@H](O)[C@H]1CO` [UV-0060], for which, in series [1], the CC50 is 245 µM. The IC50 in series [2] was found to be 5 µM; in series [3], 94.1 µM. Besides, the solubility is above 200 µM in series [4] (gastric fluid, simulated gastric fluid, read-out: Aqueous solubility in gastric fluid) and above 200 µM in [4] (intestinal fluid, fassgf or other biorelevant, read-out: Aqueous solubility in intestinal fluid). Moreover, the bioavailability in series [5] (PO 10 mg/kg vs IV 5 mg/kg) is 6%. This compound showed a clearance in series [5] (single dose, IV 5 mg/kg) of 72.9 mL/min/kg. In addition, the half-life in series [5] (single dose, IV 5 mg/kg, read-out: T1/2 (IV)) was 2.8 h; in series [5] (single dose, PO 10 mg/kg, read-out: T1/2 (PO)), 2.2 h; in series [6], above 1 h. Moreover, in series [5] (single dose, PO 10 mg/kg), the Tmax came to 2.2 h. In addition, the fraction unbound at 10 microM in [7] is 0.12. The Papp A→B in series [8] was around 0.3 ×10⁻⁶ cm/s. This compound also had an inhibition at 10 µM in [9] of 0.2%. The Ames entry in series [10] was “Ames: negative with or without S9”.

Consider `[N-]=[N+]=Nc1ccc(NCCCCCCN2C[C@H](O)[C@@H](O)[C@H](O)[C@H]2CO)c([N+](=O)[O-])c1` [UV-5], for which the solubility in series [11] was above 112 mg/mL. The half-life in series [12] (mouse, Mouse, single dose, tested IV, oral routes, read-out: T1/2) was 4.09 to 8.96 h; in [12] (mouse, mice, read-out: Plasma t½), around 4 h; in [13] (guinea pig, Guinea pig, single dose, tested IV, SQ, IM routes, read-out: T½), 1.62 to 3.99 h; in [13] (guinea pig, guinea pig, read-out: Plasma t½), 1.62 h. Moreover, the bioavailability in series [12] (mouse, mice, oral) is 80%; in series [13] (other: IM, Guinea pig, IM, SC) it was 187 to 198%. In addition, the figures for the Cmax in series [12] (setting [14]) and in series [13] (setting [15]) were 14400 ng/mL and 2320 to 3790 ng/mL, respectively. Moreover, the Tmax in series [12] (setting [14]) is 1 h; in series [13] (setting [15]), 0.75 to 1.13 h. Further, the clearance in [13] (guinea pig) was 233 mL/min/kg. The Vd in series [13] (guinea pig, read-out: Vss) came out at 16.9 L/kg.

Compound `OC[C@@H]1[C@@H](O)[C@H](O)[C@@H](O)CN1CCCCCCCCc1ccco1` [UV-30, (2R,3R,4R,5S)-1-(8-(furan-2-yl)octyl)-2-(hydroxymethyl)piperidine-3,4,5-triol] came in with a CC50 in series [1] of at least 125 µM. The IC50 in [2] came to 7 µM; in [3], 14 µM.
